Experimental data taken from paper PMC4981720, “Identification of Multiple Cryptococcal Fungicidal Drug Targets by Combined Gene Dosing and Drug Affinity Responsive Target Stability Screening” (mBio, 2016).

Molecular target: T1, malate dehydrogenase (Mdh3) (Cryptococcus neoformans, UniProt J9VXN5)
T1 construct: gene CNAG_03225; Mdh3-MBP fusion protein expressed in S. cerevisiae
T1 sequence (J9VXN5 1-338): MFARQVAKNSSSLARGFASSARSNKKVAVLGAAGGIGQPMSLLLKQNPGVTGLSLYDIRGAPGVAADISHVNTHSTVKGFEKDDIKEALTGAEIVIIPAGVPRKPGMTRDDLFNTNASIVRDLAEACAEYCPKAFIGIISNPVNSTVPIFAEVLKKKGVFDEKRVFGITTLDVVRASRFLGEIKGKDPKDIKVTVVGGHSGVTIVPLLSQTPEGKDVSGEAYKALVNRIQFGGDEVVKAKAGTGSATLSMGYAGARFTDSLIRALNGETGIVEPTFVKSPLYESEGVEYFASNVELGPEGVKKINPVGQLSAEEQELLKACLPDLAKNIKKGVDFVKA
Assay: steady-state enzyme kinetics with recombinant Mdh3-MBP, NAD turnover at […] nm, with or without […] bithionol
Type: biochemical

With `Oc1c(Cl)cc(Cl)cc1Sc1cc(Cl)cc(Cl)c1O` [bithionol] the Ki was 3 µM.
